± gives the expanded uncertainty stated by the source.
Assays:
[1] = 298.15 K; 101.33 kPa; Liquid; Pycnometric method
[2] = molar heat capacity at constant pressure; conditions: 298.15 K; 101.33 kPa; Liquid; Small sample (50 mg) DSC

With `Cn1cc[n+](CCO)c1.N#C[N-]C#N` [3-(2-hydroxyethyl)-1-methyl-1H-imidazol-3-ium dicyanoazanide] the mass density [1] was 1120 ± 10 kg/m3 and the “molar heat capacity at constant pressure” value [2] was 231.85 ± 3.9 J/K/mol.
